Tests used:
[1] = biological target: Receptor tyrosine-protein kinase erbB-2 (Homo sapiens, UniProt P04626); test: biochemical; format: cell-based, Insect cells; settings: insect cells;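 note: inhibition of HER2 kinase enzyme activity, measured with Poly(Glu:Tyr) as the phosphorylation substrate; in other assays of this panel Not Active means under 50% inhibition at 10 µM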
D(1A) dopamine receptor = D(1A) dopamine receptor (Homo sapiens, UniProt P21728); test: DRUGMATRIX: Dopamine D1 radioligand binding (ligand: [3H] SCH-23390); format: cell membranes, CHO, Membrane; settings: cho; Not Active = under 50% inhibition at 10 µM
[2] = biological target: T1, Alpha-2A adrenergic receptor (Homo sapiens, UniProt P08913); format: cell membranes, Sf9, Membrane; note: in other assays of this panel Not Active means under 50% inhibition at 10 µM
T1 sequence (P08913 whole entry): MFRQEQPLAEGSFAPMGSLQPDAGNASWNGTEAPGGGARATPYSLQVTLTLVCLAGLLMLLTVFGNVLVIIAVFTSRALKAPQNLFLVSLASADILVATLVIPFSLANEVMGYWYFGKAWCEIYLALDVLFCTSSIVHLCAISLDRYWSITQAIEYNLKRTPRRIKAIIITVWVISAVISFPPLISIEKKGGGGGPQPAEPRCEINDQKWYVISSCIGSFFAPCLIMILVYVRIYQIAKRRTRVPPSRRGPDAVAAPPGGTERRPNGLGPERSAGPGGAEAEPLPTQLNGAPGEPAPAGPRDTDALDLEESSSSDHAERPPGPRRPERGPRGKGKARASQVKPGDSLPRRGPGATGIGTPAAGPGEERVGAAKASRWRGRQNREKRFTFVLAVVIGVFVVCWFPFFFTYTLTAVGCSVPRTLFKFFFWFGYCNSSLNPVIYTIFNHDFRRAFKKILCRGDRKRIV

Caspase-1 = biological target: T2, Caspase-1 (Homo sapiens, UniProt P29466); parameters: species or system Escherichia coli;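 note: Caspase-1 enzyme inhibition assay with a peptide substrate; in other assays of this panel Not Active means under 50% inhibition at 10 µM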
T2 sequence (P29466 whole entry): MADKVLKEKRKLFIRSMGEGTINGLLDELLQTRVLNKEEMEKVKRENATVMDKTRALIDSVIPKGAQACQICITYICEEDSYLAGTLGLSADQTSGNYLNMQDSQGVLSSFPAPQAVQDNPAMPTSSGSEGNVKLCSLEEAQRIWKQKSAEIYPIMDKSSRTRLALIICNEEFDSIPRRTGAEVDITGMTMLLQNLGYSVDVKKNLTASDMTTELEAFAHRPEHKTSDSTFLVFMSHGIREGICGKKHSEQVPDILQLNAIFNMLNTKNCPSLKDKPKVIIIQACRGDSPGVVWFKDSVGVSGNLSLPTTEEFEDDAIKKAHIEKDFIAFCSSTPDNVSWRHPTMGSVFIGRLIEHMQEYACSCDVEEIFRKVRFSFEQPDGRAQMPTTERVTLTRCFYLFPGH

[3] = DRUGMATRIX: GABAA, Chloride Channel, TBOB radioligand binding (ligand: [3H] TBOB); format: cell membranes, Rattus norvegicus, Wistar, Cerebral cortex, Membrane; settings: Not Active = under 50% inhibition at 10 µM

Sequence of D(1A) dopamine receptor (P21728 whole entry): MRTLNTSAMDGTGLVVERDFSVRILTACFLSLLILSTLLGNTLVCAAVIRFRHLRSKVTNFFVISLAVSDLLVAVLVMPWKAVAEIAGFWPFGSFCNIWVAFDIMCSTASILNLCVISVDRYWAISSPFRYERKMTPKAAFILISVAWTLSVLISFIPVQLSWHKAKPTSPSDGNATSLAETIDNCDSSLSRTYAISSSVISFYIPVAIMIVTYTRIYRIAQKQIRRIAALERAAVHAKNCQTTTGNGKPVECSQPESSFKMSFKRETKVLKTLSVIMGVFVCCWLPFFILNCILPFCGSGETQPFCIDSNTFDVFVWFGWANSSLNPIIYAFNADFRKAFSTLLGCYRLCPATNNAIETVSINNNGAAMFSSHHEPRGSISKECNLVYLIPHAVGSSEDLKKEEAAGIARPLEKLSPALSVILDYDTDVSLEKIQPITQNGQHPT
Sequence of Receptor tyrosine-protein kinase erbB-2 (P04626 whole entry): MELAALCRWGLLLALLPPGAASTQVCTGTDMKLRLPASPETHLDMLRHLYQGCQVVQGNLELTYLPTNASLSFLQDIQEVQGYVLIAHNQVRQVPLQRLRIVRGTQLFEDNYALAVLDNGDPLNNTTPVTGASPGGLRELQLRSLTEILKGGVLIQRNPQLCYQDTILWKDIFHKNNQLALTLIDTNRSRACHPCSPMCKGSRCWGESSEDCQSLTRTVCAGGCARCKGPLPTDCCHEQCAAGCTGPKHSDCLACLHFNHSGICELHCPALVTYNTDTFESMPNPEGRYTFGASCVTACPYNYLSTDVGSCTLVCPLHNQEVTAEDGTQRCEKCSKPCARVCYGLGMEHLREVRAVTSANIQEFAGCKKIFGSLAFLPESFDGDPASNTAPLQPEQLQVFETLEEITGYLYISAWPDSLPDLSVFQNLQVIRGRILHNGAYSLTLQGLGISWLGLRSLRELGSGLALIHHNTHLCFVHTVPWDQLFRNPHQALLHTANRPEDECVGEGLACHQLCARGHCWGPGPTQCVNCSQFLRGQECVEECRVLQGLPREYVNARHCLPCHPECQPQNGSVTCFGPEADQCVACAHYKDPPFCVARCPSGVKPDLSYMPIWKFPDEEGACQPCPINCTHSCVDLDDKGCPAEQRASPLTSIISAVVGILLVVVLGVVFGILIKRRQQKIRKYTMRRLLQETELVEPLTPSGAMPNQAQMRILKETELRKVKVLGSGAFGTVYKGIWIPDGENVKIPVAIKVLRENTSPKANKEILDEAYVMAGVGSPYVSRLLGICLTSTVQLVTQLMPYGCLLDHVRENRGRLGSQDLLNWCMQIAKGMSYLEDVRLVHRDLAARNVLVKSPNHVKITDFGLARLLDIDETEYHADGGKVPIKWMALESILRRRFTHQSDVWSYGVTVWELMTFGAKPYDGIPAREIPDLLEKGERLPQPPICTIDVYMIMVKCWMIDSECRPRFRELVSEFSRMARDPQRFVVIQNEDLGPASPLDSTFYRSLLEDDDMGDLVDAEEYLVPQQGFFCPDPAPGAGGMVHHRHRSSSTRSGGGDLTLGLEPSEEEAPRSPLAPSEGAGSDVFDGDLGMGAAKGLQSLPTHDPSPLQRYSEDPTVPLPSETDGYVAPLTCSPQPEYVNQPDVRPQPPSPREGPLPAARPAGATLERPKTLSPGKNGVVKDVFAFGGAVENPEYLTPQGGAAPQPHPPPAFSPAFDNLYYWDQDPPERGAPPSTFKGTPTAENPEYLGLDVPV

Oc1cccc(O)c1O [PYROGALLOL]
IC50 [1]: Not Active
IC50 (D(1A) dopamine receptor): Not Active
IC50 ([2]; sf9): Not Active
IC50 (Caspase-1): Not Active
IC50 [3]: Not Active
Ki [3]: Not Active

O=C/C=C/c1ccccc1
IC50 [1]: Not Active
IC50 (D(1A) dopamine receptor): Not Active
IC50 ([2]; sf9): Not Active
IC50 (Caspase-1): Not Active
IC50 [3]: Not Active
Ki [3]: Not Active

CN/C(=N\CCSCc1nc[nH]c1C)NC#N [CIMETIDINE]
IC50 [1]: Not Active
IC50 (D(1A) dopamine receptor): Not Active
IC50 ([2]; sf9): Not Active
IC50 (Caspase-1): Not Active
IC50 [3]: Not Active
Ki [3]: Not Active

C[n+]1ccc(-c2cc[n+](C)cc2)cc1.[Cl-].[Cl-] [PARAQUAT DICHLORIDE]
IC50 [1]: Not Active
IC50 (D(1A) dopamine receptor): Not Active
IC50 ([2]; sf9): Not Active
IC50 (Caspase-1): Not Active
IC50 [3]: Not Active
Ki [3]: Not Active

CCCN(CCC)S(=O)(=O)c1ccc(C(=O)O)cc1 [PROBENECID]
IC50 [1]: Not Active
IC50 (D(1A) dopamine receptor): Not Active
IC50 ([2]; sf9): Not Active
IC50 (Caspase-1): Not Active
IC50 [3]: Not Active
Ki [3]: Not Active

C#CC1(O)CC[C@H]2[C@@H]3CCC4=CC(=O)CC[C@@H]4[C@H]3CC[C@@]21CC (stereo partly drawn) [NORGESTREL]
IC50 [1]: Not Active
IC50 (D(1A) dopamine receptor): Not Active
IC50 ([2]; sf9): Not Active
IC50 (Caspase-1): Not Active
IC50 [3]: Not Active
Ki [3]: Not Active

CC[C@H]1CN2CCc3cc(OC)c(OC)cc3[C@@H]2C[C@@H]1C[C@H]1NCCc2cc(OC)c(OC)cc21 [EMETINE]
IC50 [1]: Not Active
IC50 (D(1A) dopamine receptor): Not Active
IC50 ([2]; read-out: IC50): 38 nM
Ki ([2]; read-out: Ki): 14 nM
IC50 (Caspase-1): Not Active
IC50 [3]: Not Active
Ki [3]: Not Active
